Test results published in patent US10150984B2, “Tyrosine kinase biosensors and methods of use” (Purdue Research Foundation, priority 2012, dated 2018).
Like-named read-outs stand apart in the source and are kept apart here. *1 amine or outer side, *2 acyl side, *3 side chain or, on linkers, in order; H or OH if unused. Where no end group is shown, it is not given here. [ ]: non-standard residue; d: D form. The star is where a group is joined. ξ: configuration not given here. ξβ3hPhg(2-NO2) = O=C(CC(N[*:1])c1ccccc1[N+](=O)[O-])[*:2]; Biotin = O=C1N[C@H]2[C@H](CS[C@H]2CCCCC(=O)*)N1

Tests used:
[1] = biological target: T1, Bcr-Abl (Homo sapiens, UniProt P00519); test: Cell-based Bcr-Abl biosensor assay in K562 cells, Western blot
T1 sequence (P00519 with tags, fused parts or gaps): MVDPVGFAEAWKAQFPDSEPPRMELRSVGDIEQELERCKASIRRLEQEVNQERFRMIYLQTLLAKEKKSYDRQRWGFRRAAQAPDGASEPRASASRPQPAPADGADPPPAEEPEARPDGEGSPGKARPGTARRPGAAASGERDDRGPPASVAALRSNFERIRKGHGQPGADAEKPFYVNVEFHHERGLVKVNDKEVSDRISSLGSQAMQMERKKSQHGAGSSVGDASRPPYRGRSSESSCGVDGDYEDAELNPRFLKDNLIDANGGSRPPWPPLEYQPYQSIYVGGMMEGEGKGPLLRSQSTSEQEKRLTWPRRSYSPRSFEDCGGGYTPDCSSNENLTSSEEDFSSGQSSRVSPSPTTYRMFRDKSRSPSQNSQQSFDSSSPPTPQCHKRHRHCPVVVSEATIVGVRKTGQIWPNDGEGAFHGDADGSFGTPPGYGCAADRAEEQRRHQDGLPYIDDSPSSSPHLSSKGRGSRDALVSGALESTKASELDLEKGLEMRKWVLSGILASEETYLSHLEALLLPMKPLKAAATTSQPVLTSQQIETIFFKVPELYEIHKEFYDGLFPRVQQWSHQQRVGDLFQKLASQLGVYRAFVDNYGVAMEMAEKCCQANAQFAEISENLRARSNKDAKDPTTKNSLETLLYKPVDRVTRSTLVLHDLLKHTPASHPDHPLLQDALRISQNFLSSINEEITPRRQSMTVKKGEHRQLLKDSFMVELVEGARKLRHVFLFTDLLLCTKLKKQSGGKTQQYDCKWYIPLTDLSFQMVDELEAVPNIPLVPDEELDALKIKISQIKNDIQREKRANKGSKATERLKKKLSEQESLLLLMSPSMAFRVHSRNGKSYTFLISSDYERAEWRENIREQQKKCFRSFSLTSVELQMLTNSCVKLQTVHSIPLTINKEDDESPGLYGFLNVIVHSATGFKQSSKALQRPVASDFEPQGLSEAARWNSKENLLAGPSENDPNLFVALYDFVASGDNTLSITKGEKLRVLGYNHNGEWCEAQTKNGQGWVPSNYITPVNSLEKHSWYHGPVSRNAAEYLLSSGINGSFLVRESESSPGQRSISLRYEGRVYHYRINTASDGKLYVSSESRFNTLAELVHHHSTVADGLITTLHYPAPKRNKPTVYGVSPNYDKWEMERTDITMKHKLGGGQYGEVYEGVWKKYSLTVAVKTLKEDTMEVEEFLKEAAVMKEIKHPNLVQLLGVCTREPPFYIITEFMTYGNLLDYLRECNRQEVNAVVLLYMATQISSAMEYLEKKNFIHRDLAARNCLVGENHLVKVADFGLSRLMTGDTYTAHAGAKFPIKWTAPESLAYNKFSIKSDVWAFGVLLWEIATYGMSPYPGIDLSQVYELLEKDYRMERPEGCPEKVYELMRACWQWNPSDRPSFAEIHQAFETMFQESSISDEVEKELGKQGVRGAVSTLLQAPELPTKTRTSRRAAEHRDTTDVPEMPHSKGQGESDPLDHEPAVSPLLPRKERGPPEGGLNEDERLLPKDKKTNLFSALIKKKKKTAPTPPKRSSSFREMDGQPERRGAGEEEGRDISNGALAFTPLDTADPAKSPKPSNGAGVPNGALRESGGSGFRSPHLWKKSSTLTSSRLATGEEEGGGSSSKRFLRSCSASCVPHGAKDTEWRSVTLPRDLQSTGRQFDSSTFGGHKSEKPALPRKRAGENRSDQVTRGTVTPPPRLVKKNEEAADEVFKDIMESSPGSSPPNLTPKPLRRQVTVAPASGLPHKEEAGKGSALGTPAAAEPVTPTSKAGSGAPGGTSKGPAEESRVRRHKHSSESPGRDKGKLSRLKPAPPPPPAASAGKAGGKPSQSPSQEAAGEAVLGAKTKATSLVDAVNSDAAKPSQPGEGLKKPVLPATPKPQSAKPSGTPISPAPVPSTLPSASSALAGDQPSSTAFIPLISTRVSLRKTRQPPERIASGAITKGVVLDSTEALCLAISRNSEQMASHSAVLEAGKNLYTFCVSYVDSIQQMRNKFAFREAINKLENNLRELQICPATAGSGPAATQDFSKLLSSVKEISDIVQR

[2] = system: K562 cells; test: Intracellular degradation of biosensor peptide in K562 cells, MALDI-TOF/TOF; conditions: 5 min exposure
[3] = system: DG75 and DT40 B cell lines; test: Toxicity of SAStide biosensor peptide in the cell-based assay; conditions: peptide at 25 μM
Method: Cell culture and biological reagents. The DG75 and DT40 B cell lines were grown to a density of 0.4×10^6 cells/mL in RPMI-1640 medium containing 7.5% FBS, 1 mM sodium pyruvate, 100 IU/mL penicillin, 100 μg/mL streptomycin and 50 μM 2-metcaptoethanol. Additionally, DT40 cell medium contained 1% chicken serum. Anti-chicken IgM and anti-mouse IgM F(ab′)2 fragments were purchased from Bethyl Laboratories. Anti-human IgM was purchased from Rockland Immunochemicals. Hydrogen peroxide was purchased from Mallinckrodt. Anti-Syk (N-19) was purchased from Santa Cruz Biotechnology. Anti-tubulin and anti-phosphotyrosine (4G10) were purchased from Millipore. Anti-phospho Syk (Y525/526) was purchased from Cell SignalingTechnology.
Cell-Based peptide SAStide biosensor assay. […] Aliquots of the cell suspension (1 mL) were harvested, lysed in PhosphoSafe Extraction Reagent (EMD Millipore) containing 167 mM EDTA and freshly prepared protease inhibitor cocktail (Roche) and flash frozen. Half the cell lysate from each sample was used for ELISA-based fluorescence detection and the other for immunoblotting. For dose-response experiments, cells were stimulated with varying concentrations of anti-IgM (2.5-10 μg/mL) or hydrogen peroxide (1-7 mM), harvested at 5 min post-stimulation and processed as described above. For immunoblotting, membranes were blocked in 5% goat serum for 1 h. […]

[4] = biological target: Src (Homo sapiens, UniProt P12931); test: In vitro kinase assay, ELISA-based detection of peptide phosphorylation; type: biochemical; conditions: ELISA read-out
Method: (§1) In vitro kinase assay. Recombinant Abl, Src and Lyn enzymes were obtained from a commercial source (Millipore). EGFP-conjugated Syk was isolated from DT40 chicken B cells stably expressing Syk-EGFP. GFP-conjugated Lck was isolated from Jurkat cells stably expressing Lck-EGFP. Cells were lysed using a solution containing 1% Nonidet P-40, 50 mM Tris-HCl pH 8.0, 100 mM NaCl, 5 mM EDTA, 1 mM sodium orthovanadate, 2 mM NaF and 1× mammalian protease inhibitor cocktail (Sigma). Syk- and Lck-EGFP were immunoprecipitated using GFP-Trap_A beads (Chromotek) or anti-GFP magnetic nanoparticle beads (MBL, Japan). Lysates were incubated with the beads for 1 h at 4° C. The kinase-bound beads were washed and then used in the in vitro kinase assay. Syk-EGFP, Lck-EGFP, or purified Abl or Src kinase (0.1 U) were incubated with kinase reaction buffer (500 μM ATP, 5 mM MnCl2, HEPES, pH 7.2) containing the peptide substrate at 25 μM. Aliquots (22 μL) were taken at designated time points and quenched in 0.5 M EDTA, pH 8.5 (22 μL). The quenched sample (1 μL) was diluted into ELISA-based detection wash buffer and analyzed as described below. For substrate comparison assays, kinase reaction conditions were as described above except that substrate concentrations were 4 μM, and concentration of enzyme used per reaction was 6 nM. The volume of aliquots diluted in an equal volume of quench buffer was 4 μl (for 8 μl total quenched volume), and the entire quenched amount was diluted into ELISA wash buffer and analyzed as described below.
(§2) ELISA-based fluorescence detection. Samples were incubated in a 96-well Neutravidin™ coated plate (Thermo Scientific) in Tris-buffered saline (TBS) containing 0.1% BSA and 0.05% Tween 20 for 1 h at room temperature on a short-radius plate shaker (600 rpm). Following incubation, wells were washed three times with wash buffer (TBS, 0.1% BSA, 0.05% Tween 20), then incubated with mouse anti-phosphotyrosine monoclonal antibody 4G10 (1:5000 dilution in wash buffer, 100 μL per well) for 1 h at room temperature with shaking. Wells were washed three times with wash buffer and incubated with horseradish peroxidase-conjugated goat anti-mouse immunoglobulin G (IgG) secondary antibody (Abcam) (1:1000 dilution in the wash buffer, 100 μL per well) for 1 h at room temperature with shaking. Wells were then washed three times with wash buffer and twice with sodium phosphate buffer (0.05 M, pH 7.5). For chemifluorescence detection, Amplex Red™ reaction buffer (100 μL total volume/well) consisting of Amplex Red™ reagent (50 μL) (Invitrogen), 20 mM H2O2 (500 μL) and sodium phosphate buffer (4500 μL) and allowed to react for 30 min. Fluorescence of Amplex Red™ was measure using a Synergy4 multiwell plate reader (Biotek) with an excitation wavelength of 532 nm and emission wavelength of 590 nm.

[5] = biological target: T2, Abl (Homo sapiens, UniProt P00519); test: as above; type: biochemical; conditions: ELISA read-out
T2 sequence (P00519 whole entry, species assumed): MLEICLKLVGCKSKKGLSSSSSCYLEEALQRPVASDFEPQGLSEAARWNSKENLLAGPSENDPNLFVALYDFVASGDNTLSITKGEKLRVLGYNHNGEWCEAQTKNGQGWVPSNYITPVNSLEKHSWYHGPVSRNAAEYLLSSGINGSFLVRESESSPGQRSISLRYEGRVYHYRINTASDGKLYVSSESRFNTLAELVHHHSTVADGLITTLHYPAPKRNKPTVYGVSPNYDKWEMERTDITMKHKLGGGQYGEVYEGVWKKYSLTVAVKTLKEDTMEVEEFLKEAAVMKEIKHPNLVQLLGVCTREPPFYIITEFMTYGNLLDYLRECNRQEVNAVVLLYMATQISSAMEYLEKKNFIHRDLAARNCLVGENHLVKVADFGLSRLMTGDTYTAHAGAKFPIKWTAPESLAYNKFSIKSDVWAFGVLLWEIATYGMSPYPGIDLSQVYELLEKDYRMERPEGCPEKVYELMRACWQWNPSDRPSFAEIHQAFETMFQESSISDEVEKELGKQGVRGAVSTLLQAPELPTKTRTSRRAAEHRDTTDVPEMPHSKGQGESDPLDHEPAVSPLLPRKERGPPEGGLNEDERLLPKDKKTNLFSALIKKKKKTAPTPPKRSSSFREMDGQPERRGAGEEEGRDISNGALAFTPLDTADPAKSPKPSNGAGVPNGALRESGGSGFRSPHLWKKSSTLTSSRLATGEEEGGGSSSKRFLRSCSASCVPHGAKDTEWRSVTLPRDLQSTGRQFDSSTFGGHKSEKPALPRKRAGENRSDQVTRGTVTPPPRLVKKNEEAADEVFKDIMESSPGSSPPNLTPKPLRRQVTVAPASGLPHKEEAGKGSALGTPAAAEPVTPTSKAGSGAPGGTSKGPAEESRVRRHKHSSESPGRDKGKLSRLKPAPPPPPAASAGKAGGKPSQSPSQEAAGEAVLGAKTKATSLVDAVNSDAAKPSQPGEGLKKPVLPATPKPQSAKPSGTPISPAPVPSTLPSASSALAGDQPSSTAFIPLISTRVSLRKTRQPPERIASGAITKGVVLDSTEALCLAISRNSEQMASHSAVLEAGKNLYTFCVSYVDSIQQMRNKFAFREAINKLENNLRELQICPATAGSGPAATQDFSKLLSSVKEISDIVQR
Method: as §1, §2

[6] = biological target: T3, Syk (Mus musculus, UniProt P48025); test: as above; type: biochemical; conditions: ELISA read-out
T3 construct: made in house; host or cells: DT40 chicken B cells (Syk-deficient, reconstituted with Syk-EGFP)
T3 sequence (P48025 whole entry): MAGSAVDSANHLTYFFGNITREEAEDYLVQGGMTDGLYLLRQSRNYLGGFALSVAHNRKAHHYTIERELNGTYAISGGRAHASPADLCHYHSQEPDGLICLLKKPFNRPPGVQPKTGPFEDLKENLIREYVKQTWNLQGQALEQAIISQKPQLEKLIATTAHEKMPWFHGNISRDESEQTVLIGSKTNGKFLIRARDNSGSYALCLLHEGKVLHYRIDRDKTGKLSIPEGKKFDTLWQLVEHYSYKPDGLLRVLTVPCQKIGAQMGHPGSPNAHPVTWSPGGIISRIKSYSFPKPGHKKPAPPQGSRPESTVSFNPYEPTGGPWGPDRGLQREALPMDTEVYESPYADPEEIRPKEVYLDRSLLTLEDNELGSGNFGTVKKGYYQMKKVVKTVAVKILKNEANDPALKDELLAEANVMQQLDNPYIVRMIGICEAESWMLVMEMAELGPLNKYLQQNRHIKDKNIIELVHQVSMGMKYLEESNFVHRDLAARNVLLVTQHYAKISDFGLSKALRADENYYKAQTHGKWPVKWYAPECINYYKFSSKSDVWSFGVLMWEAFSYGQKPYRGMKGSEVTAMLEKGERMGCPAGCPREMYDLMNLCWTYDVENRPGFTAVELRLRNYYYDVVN
Method: as §1, §2

[7] = biological target: Lyn (Homo sapiens, UniProt P07948); test: as above; type: biochemical; conditions: ELISA read-out
Chain of Lyn (P07948 whole entry, species assumed): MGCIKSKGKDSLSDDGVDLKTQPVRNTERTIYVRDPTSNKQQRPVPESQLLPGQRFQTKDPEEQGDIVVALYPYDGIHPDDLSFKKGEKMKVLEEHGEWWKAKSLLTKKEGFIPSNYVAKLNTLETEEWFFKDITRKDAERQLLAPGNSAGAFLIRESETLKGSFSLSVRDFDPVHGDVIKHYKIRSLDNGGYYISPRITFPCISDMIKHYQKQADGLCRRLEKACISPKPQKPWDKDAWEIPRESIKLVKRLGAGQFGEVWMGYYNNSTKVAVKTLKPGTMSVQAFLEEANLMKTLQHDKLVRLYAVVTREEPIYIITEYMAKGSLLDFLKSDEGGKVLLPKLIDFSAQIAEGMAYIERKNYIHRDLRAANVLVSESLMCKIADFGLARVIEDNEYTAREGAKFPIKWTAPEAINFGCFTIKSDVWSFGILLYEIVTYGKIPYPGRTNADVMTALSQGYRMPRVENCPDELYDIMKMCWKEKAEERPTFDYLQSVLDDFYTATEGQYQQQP
Method: as §1, §2

[8] = Tb3+ binding affinity and stoichiometry by sensitized luminescence
[9] = biological target: T1, Bcr-Abl; test: Cell-based Bcr-Abl biosensor assay in K562 cells, MRM mass spectrometry; design: endogenous in cells; host or cells: K562 cells; the other entry of the earlier key: BCR (P11274, Breakpoint cluster region protein); conditions: 5 min, 1 μg lysate
[10] = system: peripheral T-cell lymphomas (PTCLs); conditions: PTCL cells; cited from earlier work
[11] = biological target: Syk-EGFP (Mus musculus, UniProt P48025); test: Terbium time-resolved luminescence dose-response inhibition assay with SAStide; type: biochemical; conditions: SAStide 37.5 μM, 30 min, Tb3+ luminescence, read-out: observed IC50
Chain of Syk-EGFP (P48025 whole entry): as the sequence (P48025 whole entry) above

[12] = biological target: T2, Abl; test: ABStide specificity in vitro kinase assay (terbium luminescence, confirmed by ELISA); type: biochemical; conditions: terbium-sensitized luminescence
Method: Terbium based in vitro kinase assays. Recombinant kinases were incubated with the kinase reaction buffer (15 nM kinase, 100 μM ATP, 10 mM MgCl2, 125 ng/μL BSA and 25 mM HEPES pH 7.5, total volume 180 μL) containing 12.5 μM biosensor at 30° C. Aliquots (20 μL) were taken at designated time points (0.5, 5, 10, 15, 30, 45 and 60 min) and quenched in 6 M urea (20 μL). The quenched samples were then treated with the luminescence buffer (500 μM Tb^3+ and 500 mM NaCl, 10 μL) for a total volume of 50 μL (final concentrations of sample components: 2.4 M urea, 40 μM ATP, 4 mM MgCl2, 50 ng/μL BSA and 10 mM HEPES pH 7.5). Luminescence emission spectra were collected as described above and the area under each spectrum was integrated using GraphPad Prism. An additional aliquot (2 μL) of the kinase reaction mixture was taken at each time point for validation of phosphorylation using an ELISA-based chemifluorescent assay as previously described. Briefly, each aliquot was quenched with 0.5 M EDTA and incubated in a 96-well Neutravidin coated plate (15 pmol biotin binding capacity per well, Thermo Scientific) in Tris-buffer saline (TBS) containing 0.1% BSA and 0.05% Tween 20 for 1 h. […] Fluorescence was measured using a Synergy4 multiwell plate reader (Biotek) with an excitation wavelength of 532 nm and emission wavelength of 590 nm.

[13] = 1 μM peptide, Tb3+ 0-50 μM, read-out: Kd of peptide:terbium complex

Molecule: EAIYAAPFAKKK(Biotin)G[ξβ3hPhg(2-NO2)]GCGGAPTYSPPPPPGGRKKRRQRRRLL [Abl biosensor]
- uptake into K562 cells ([1]; 25 μM peptide): readily taken up
- intact peptide after exposure to cells [2]: essentially no intact peptide was observed

Molecule: DEEDYEEPDEP [SAStide]
- toxicity of peptide to cells [3]: no toxicity was observed
- phosphorylation of peptide by Src [4]: none of which produced any significant signal
- phosphorylation of peptide by Abl [5]: none of which produced any significant signal
- phosphorylation of peptide by Syk [6]: phosphorylated
- phosphorylation of peptide by Lyn [7]: none of which produced any significant signal
- Kd ([8]; read-out: Kd of 1:1 peptide-terbium complex): 7.64 ± 0.32 µM

Molecule: pervanadate [reference compound]
- effect on phosphorylation of Abl biosensor ([1]; K562 cells, 10 μM imatinib or 1 μM pervanadate, 5, 30, 60 min): stabilized
- phosphorylated biosensor peptide detected [9]: higher levels

Molecule: GGDNEGDVYDFVEDGGKbiotin (GGDNEGDVYDFVEDGGK(Biotin)GG) [SFAStideB, Src family artificial substrate peptide B]
- Kd [8, 13]: 2.5 µM

Molecule: COc1cc(Nc2ncc(F)c(Nc3ccc4c(n3)NC(=O)C(C)(C)O4)n2)cc(OC)c1OC [R406]
- effect on cells with elevated Syk Y525/Y526 phosphorylation [10]: induces apoptosis and blocks proliferation

Molecule: GGEEDEDIYEELDEPGGKbiotinGG [SFAStide-A]
- phosphorylation of peptide by Src [4]: phosphorylate SFAStide-A efficiently
- phosphorylation of peptide by Abl [5]: will not
- phosphorylation of peptide by Syk [6]: will not
- phosphorylation of peptide by Lyn [7]: phosphorylate SFAStide-A efficiently
- Kd [8, 13]: 3.93 µM

Molecule: Oc1cc(O)cc(/C=C/c2ccc(O)c(O)c2)c1 [piceatannol]
- IC50 [11]: 178 ± 1.4 µM

Molecule: pSFAStideA [Phosphorylated form of SFAStide-A]
- Kd [8, 13]: 0.77 µM

Molecule: GGDEDDNDEVAYQAPFEDGGKbiotinGG (GGDEDDNDEVAYQAPFEDGGK(Biotin)GG) [ABStide, Abl artificial substrate peptide]
- substrate specificity Abl against Hck [12]: specific for Abl
